Results reported in ChEMBL document CHEMBL1153484, “Design, synthesis and evaluation of N-[(3S)-pyrrolidin-3-yl]benzamides as selective noradrenaline reuptake inhibitors: CNS penetration in a more polar template” (Bioorg Med Chem Lett, 2009).
Active and inactive are the calls of the source. No cut-off for these calls is given here.

Assays:
[1] = target: Sodium-dependent dopamine transporter (Homo sapiens, UniProt Q01959); test: Displacement of radioligand from human recombinant DAT expressed in HEK293 cells by scintillation proximity assay; assay type: cell-based
[2] = target: Sodium-dependent serotonin transporter (Homo sapiens, UniProt P31645); test: Displacement of [3H]citalopram from human recombinant SERT expressed in HEK293 cells by scintillation proximity assay; assay type: cell-based
[3] = target: Sodium-dependent noradrenaline transporter (Homo sapiens, UniProt P23975); test: Displacement of [3H]nisoxetine from human recombinant NET expressed in HEK293 cells by scintillation proximity assay; assay type: cell-based
[4] = target: Voltage-gated inwardly rectifying potassium channel KCNH2 (Homo sapiens, UniProt Q12809); test: Displacement of [3H]dofetilide from human ERG
[5] = Intrinsic clearance in human liver microsomes; assay type: ADME, Microsome
Cytochrome P450 2D6 = Cytochrome P450 2D6 (Homo sapiens, UniProt P10635); test: Inhibition of CYP2D6; assay type: ADME
hERG (KCNH2) = hERG (KCNH2) (Homo sapiens, UniProt Q12809); test: Displacement of [3H]dofetilide from human ERG at 10 uM; details: probe [3H]dofetilide
[6] = target: T1, Muscarinic acetylcholine receptor M4 (Homo sapiens) (UniProt P08173); test: Binding affinity to human muscarinic M4 receptor at 10 uM
T1 sequence (whole entry): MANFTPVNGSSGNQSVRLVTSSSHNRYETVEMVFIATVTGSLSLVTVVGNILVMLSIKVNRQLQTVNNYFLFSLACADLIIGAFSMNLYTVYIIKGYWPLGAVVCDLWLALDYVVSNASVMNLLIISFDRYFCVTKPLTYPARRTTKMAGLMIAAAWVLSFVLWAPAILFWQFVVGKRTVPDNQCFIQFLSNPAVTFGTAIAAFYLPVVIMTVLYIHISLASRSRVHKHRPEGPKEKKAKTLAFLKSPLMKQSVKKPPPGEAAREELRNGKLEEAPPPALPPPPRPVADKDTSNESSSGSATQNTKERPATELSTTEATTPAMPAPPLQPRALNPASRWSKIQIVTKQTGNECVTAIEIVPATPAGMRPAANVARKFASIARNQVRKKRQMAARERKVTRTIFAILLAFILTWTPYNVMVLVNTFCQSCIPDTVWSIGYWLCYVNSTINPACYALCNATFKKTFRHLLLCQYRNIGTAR

[7] = target: T2, Muscarinic acetylcholine receptor M5 (Homo sapiens) (UniProt P08912); test: Binding affinity to human muscarinic M5 receptor at 10 uM
T2 sequence (whole entry): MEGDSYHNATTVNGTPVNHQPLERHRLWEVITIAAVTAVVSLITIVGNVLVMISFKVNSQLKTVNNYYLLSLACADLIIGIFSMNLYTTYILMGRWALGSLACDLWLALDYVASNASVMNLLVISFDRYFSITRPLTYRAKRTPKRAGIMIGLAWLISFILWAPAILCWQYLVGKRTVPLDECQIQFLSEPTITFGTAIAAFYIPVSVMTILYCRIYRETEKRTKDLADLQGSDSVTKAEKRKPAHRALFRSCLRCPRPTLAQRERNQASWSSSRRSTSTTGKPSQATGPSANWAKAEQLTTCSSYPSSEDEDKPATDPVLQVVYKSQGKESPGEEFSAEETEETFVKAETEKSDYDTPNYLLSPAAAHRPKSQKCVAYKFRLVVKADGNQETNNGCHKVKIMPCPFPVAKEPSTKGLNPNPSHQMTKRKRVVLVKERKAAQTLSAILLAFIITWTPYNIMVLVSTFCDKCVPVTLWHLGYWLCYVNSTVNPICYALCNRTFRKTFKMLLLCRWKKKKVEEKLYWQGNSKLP

Rattus norvegicus [8] = test: Increase in noradrenaline level in interstitial fluid of rat prefrontal cortex at 0.3 to 3.2 mg/kg, sc by microdialysis method relative to baseline level; assay type: functional; details: dose mg/kg 0.3-3.2; route subcutaneous
Rattus norvegicus [9] = test: Effect on 5-hydroxyindoleacetic acid level in rat prefrontal cortex up to 3.2 mg/kg, sc by microdialysis method; assay type: functional, organism-based; set-up: dose 3.2 mg/kg
Rattus norvegicus [10] = test: Effect on dihydroxyphenylacetic acid level in rat prefrontal cortex up to 3.2 mg/kg, sc by microdialysis method; assay type: functional, organism-based; set-up: dose 3.2 mg/kg
Rattus norvegicus [11] = test: Ex vivo NET occupancy in rat neocortical tissue at 3 mg/kg, sc after 1 hr by [3H]nisoxetine binding assay; assay type: functional; details: route subcutaneous
[12] = Dissociation constant, pKa of the compound; assay type: physicochemical
Cytochrome P450 1A2 = target: T3, Cytochrome P450 1A2 (Homo sapiens, UniProt P05177); test: Inhibition of CYP1A2; assay type: ADME
T3 sequence (P05177 whole entry): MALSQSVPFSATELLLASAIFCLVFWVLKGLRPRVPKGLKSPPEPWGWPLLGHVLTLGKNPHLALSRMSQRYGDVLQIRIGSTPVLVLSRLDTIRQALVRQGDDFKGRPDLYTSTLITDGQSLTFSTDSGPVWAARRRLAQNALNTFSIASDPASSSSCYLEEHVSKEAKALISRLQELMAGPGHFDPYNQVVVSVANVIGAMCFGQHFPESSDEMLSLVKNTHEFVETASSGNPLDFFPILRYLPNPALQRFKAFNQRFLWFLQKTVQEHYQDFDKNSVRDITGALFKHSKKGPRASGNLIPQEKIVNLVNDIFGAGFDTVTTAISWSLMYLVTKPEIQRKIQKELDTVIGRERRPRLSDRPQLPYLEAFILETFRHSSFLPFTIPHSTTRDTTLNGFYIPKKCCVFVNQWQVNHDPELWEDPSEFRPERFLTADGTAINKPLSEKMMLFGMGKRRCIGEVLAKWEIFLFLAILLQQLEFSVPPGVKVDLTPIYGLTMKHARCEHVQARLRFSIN

Cytochrome P450 2C9 = Cytochrome P450 2C9 (Homo sapiens, UniProt P11712); test: Inhibition of CYP2C9; assay type: ADME
Cytochrome P450 2C19 = Cytochrome P450 2C19 (Homo sapiens, UniProt P33261); test: Inhibition of CYP2C19; assay type: ADME
Cytochrome P450 3A4 [13] = target: T4, Cytochrome P450 3A4 (Homo sapiens, UniProt P08684); test: Inhibition of CYP3A4 using felodipine as substrate; assay type: ADME
Cytochrome P450 3A4 [14] = target: T4, Cytochrome P450 3A4; test: Inhibition of CYP3A4 using midazolam as substrate; assay type: ADME
Cytochrome P450 3A4 [15] = target: T4, Cytochrome P450 3A4; test: Inhibition of CYP3A4 using testosterone as substrate; assay type: ADME
[16] = Apparent permeability from apical to basolateral side of human Caco-2 cells at 10 uM; assay type: ADME, cell-based
[17] = Apparent permeability from basolateral to apical side of human Caco-2 cells at 10 uM; assay type: ADME, cell-based
MDR1 (P-gp) [18] = test: Apparent permeability from apical to basolateral side of MDCK cells expressing MDR1 at 10 uM; assay type: ADME, cell-based, Canis lupus familiaris; details: dog
MDR1 (P-gp) [19] = test: Apparent permeability from basolateral to apical side of MDCK cells expressing MDR1 at 10 uM; assay type: ADME, cell-based, Canis lupus familiaris; details: dog
MDR1 (P-gp) [20] = test: Efflux ratio of permeability from […] in MDCK cells expressing MDR1 at 10 uM; assay type: ADME, cell-based, Canis lupus familiaris; details: dog
[21] = Binding affinity to sodium channel site 2
[22] = target: Sodium channel protein type 5 subunit alpha (Homo sapiens, UniProt Q14524); test: Blockade of Nav1.5 sodium channel
Transporter = Transporter (Rattus norvegicus, UniProt Q63380); test: Binding affinity to rat NET expressed in HEK293 cells; assay type: cell-based
[23] = target: T5, Muscarinic acetylcholine receptor M4 (Homo sapiens, UniProt P08173); test: Binding affinity to human muscarinic M4 receptor
T5 sequence (P08173 whole entry): T1 sequence (whole entry)

[24] = target: T6, Muscarinic acetylcholine receptor M5 (Homo sapiens, UniProt P08912); test: Binding affinity to human muscarinic M5 receptor
T6 sequence (P08912 whole entry): T2 sequence (whole entry)

T4 sequence (P08684 whole entry): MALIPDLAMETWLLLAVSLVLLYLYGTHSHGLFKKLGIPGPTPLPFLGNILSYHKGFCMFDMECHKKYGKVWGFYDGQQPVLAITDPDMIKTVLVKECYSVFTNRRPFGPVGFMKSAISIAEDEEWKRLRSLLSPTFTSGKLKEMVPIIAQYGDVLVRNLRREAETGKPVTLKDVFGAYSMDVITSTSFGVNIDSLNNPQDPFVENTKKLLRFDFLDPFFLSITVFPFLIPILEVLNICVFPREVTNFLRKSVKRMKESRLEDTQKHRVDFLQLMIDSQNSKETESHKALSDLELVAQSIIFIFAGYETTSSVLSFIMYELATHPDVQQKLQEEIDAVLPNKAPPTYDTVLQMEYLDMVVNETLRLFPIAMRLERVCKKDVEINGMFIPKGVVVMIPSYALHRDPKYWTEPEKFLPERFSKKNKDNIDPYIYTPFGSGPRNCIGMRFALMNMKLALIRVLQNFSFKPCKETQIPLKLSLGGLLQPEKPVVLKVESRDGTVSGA
Cytochrome P450 2D6, sequence (P10635 whole entry): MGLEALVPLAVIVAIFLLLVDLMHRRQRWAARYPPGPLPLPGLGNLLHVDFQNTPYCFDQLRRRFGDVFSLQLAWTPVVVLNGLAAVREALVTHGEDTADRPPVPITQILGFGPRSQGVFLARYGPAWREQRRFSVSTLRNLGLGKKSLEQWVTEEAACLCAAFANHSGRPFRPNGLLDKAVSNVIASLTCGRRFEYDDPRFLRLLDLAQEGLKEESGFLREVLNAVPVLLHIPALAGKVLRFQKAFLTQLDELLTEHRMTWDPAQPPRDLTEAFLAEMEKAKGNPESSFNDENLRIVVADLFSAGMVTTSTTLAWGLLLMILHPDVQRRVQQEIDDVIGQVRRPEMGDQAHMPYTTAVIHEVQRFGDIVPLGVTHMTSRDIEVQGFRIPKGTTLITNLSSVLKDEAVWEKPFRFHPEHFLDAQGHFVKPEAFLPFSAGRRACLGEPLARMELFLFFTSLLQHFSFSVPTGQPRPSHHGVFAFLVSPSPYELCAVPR
Sodium channel protein type 5 subunit alpha, sequence (Q14524 whole entry): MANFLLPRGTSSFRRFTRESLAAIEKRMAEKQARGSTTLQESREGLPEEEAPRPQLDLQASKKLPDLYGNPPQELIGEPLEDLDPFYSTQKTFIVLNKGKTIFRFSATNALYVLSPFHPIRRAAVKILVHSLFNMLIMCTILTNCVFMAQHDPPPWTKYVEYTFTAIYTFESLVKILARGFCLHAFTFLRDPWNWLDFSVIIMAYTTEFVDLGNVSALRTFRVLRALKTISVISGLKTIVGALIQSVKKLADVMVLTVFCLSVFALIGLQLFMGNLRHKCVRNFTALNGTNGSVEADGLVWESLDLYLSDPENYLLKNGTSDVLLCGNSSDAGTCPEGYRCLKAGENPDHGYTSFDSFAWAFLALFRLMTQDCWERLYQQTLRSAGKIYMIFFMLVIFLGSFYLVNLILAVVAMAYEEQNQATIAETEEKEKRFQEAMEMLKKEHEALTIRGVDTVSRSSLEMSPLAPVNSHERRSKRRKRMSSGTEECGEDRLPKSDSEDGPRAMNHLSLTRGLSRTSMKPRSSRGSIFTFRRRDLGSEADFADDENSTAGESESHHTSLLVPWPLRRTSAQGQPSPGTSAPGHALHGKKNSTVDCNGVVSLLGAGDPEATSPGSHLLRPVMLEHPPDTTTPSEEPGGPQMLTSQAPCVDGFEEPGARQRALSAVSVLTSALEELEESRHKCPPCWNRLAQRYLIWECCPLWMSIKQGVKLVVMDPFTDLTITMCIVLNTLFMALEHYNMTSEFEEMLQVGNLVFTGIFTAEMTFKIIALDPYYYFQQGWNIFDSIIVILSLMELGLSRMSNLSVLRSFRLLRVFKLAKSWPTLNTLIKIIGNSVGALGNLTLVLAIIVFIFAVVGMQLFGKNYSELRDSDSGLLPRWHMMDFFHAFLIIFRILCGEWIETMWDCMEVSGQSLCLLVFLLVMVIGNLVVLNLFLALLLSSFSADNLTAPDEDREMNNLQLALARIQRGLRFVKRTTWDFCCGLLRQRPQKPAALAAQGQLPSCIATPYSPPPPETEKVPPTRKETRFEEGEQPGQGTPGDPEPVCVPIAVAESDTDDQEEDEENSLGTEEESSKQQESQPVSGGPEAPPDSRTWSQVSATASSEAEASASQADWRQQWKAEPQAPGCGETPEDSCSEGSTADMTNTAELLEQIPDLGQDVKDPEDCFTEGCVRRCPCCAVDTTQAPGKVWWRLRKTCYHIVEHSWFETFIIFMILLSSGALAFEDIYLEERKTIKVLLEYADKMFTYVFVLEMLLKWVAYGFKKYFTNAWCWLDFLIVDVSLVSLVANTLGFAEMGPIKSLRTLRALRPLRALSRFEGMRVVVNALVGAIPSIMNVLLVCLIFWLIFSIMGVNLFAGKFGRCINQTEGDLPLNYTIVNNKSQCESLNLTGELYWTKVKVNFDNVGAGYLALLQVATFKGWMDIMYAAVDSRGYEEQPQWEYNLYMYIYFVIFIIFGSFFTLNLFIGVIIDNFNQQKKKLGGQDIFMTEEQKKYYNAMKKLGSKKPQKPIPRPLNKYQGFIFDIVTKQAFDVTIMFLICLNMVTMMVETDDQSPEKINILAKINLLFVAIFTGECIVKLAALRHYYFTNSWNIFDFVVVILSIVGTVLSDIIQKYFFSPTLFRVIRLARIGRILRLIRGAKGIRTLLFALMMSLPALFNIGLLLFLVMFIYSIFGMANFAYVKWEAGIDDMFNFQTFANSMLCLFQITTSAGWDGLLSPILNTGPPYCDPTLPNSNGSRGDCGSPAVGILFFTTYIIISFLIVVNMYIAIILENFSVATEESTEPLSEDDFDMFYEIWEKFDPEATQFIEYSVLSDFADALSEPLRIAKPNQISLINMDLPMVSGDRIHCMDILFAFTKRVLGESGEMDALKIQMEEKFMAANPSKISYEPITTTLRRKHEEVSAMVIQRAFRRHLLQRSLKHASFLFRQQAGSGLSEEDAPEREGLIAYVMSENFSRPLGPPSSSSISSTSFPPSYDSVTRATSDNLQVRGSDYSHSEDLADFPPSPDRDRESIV
Sodium-dependent dopamine transporter, sequence (Q01959 whole entry): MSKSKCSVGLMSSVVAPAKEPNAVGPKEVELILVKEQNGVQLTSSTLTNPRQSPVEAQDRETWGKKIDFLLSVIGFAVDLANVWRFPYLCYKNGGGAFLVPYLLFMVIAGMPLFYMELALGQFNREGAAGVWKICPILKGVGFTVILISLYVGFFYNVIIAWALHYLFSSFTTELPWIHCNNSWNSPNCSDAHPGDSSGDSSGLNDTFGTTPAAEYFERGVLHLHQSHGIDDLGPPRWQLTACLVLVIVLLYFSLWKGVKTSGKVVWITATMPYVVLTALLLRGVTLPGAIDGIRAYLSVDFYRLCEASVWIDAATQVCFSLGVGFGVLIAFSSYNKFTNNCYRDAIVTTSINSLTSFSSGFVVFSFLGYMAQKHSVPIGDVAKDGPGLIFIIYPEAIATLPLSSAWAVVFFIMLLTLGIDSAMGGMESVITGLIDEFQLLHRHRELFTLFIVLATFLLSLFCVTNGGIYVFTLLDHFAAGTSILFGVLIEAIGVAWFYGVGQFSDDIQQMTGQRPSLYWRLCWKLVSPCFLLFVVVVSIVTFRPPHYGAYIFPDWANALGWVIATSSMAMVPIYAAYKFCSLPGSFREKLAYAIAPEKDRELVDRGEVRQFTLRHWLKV
Transporter, sequence (Q63380 whole entry): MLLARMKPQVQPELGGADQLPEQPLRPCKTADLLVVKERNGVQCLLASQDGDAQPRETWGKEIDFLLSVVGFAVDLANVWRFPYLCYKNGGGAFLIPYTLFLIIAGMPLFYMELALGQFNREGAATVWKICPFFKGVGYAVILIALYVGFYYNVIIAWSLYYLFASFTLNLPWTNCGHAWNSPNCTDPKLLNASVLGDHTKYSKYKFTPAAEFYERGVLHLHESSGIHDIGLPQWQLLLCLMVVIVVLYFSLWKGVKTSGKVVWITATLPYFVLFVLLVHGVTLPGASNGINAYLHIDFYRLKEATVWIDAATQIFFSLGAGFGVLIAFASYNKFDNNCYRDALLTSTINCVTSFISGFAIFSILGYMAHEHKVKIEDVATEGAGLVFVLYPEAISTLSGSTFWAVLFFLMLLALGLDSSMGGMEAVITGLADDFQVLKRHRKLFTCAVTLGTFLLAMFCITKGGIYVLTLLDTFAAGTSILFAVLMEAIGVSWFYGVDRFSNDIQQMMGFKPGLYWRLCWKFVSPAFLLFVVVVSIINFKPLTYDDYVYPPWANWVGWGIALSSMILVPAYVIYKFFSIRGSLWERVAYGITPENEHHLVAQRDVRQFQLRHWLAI
Cytochrome P450 2C19, sequence (P33261 whole entry): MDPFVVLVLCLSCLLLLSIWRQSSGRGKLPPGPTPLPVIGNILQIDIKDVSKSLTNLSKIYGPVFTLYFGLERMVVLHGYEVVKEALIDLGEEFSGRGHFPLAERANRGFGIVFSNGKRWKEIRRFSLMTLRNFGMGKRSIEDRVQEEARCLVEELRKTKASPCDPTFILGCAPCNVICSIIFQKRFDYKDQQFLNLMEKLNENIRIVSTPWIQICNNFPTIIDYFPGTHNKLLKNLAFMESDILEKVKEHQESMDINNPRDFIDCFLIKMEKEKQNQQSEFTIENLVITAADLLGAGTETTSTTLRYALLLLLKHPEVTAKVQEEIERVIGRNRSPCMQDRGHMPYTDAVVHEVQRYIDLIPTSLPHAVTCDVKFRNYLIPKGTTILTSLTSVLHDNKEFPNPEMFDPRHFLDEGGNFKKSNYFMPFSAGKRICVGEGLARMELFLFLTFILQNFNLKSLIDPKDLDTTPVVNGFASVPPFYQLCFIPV

O=C(c1ccccc1C(F)(F)F)N(CC1CCC1)[C@H]1CCNC1
Ki [1]: 2290 nM
Ki [2]: 224 nM
Ki [3]: 6 nM
IC50 [4]: > 20 µM
microsomal CLint [5]: < 7 µL/min/mg
IC50 (Cytochrome P450 2D6): 15.1 µM
inhibition at 10 µM (hERG (KCNH2)): 48%
inhibition [6]: > 50%
inhibition [7]: > 50%
Activity (Rattus norvegicus [8]): 200%
Activity (Rattus norvegicus [9]): inactive
Activity (Rattus norvegicus [10]): inactive
Activity (Rattus norvegicus [11]): 52%
pKa [12]: 9.5
IC50 (Cytochrome P450 1A2): > 30 µM
IC50 (Cytochrome P450 2C9): > 30 µM
IC50 (Cytochrome P450 2C19): > 30 µM
IC50 (Cytochrome P450 3A4 [13]): 22 µM
IC50 (Cytochrome P450 3A4 [14]): 12.2 µM
IC50 (Cytochrome P450 3A4 [15]): 31.2 µM
Papp A→B at 10 µM [16]: 16 ×10⁻⁶ cm/s
Papp B→A at 10 µM [17]: 33 ×10⁻⁶ cm/s
Papp A→B at 10 µM (MDR1 (P-gp) [18]): 11 ×10⁻⁶ cm/s
Papp B→A at 10 µM (MDR1 (P-gp) [19]): 57 ×10⁻⁶ cm/s
efflux ratio at 10 µM (MDR1 (P-gp) [20]): 5.2
Ki [21]: 3.7 µM
IC50 [22]: > 26 µM
Ki (Transporter): 3.9 nM
Ki [23]: 4.3 µM
Ki [24]: 1800 nM
